One block for each molecule: values may come before it.
Tests used:
Type in all cases: ADME, subcellular
Aldehyde oxidase [1] = target: T1, Aldehyde oxidase (Homo sapiens, UniProt Q06278); assay: Drug metabolism in human liver S9 fraction assessed as aldehyde oxidase-mediated 2-oxo-metabolite formation at 10 uM by spectrometry; conditions: s9, 10 µM
T1 sequence (Q06278 whole entry): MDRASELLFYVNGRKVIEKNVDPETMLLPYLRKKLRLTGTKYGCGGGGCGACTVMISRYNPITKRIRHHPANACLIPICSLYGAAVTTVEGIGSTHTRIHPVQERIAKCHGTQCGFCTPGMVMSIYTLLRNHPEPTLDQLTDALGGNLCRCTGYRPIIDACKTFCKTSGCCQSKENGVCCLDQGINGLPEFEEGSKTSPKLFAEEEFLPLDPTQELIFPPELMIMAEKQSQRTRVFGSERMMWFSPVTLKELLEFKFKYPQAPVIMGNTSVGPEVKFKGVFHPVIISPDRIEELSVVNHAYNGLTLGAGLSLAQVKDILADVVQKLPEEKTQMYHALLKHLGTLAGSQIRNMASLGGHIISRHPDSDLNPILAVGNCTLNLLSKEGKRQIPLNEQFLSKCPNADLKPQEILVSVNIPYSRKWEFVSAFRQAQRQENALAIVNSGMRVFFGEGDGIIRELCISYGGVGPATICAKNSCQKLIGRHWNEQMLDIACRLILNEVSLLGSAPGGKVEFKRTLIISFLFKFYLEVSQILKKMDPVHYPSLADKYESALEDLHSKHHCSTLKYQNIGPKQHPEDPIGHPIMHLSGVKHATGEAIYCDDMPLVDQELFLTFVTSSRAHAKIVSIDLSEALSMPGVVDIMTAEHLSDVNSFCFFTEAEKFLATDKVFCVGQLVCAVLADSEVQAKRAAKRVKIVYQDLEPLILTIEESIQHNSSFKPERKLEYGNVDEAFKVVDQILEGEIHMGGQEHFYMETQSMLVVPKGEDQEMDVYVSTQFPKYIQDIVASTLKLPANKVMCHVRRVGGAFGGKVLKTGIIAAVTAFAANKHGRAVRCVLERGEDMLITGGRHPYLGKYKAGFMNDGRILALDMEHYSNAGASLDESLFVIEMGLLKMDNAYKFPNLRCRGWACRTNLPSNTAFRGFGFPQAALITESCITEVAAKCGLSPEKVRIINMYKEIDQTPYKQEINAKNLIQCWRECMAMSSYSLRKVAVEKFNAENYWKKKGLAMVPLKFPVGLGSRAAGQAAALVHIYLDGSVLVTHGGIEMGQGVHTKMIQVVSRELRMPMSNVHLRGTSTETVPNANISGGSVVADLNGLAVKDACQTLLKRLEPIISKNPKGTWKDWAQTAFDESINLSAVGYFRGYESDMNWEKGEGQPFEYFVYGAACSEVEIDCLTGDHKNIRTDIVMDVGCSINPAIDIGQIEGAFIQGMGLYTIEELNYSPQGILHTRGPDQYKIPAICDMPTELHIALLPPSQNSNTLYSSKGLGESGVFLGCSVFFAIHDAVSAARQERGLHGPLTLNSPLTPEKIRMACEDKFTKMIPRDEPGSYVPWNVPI

Aldehyde oxidase [2] = target: T1, Aldehyde oxidase; assay: Half life in human liver S9 fraction assessed as aldehyde oxidase-mediated 2-oxo-metabolite formation at 1 uM by spectrometry; conditions: s9, 1 µM
Aldehyde oxidase [3] = target: T1, Aldehyde oxidase; assay: Drug level in human liver S9 fraction assessed as aldehyde oxidase-mediated compound formation treated with 10 uM 5-cyclopropyl-N,N-diethyl-1-(quinolin-5-yl)-1H-pyrazole-4-carboxamide by spectrometry
Aldehyde oxidase [4] = target: T1, Aldehyde oxidase; assay: Drug level in human liver S9 fraction assessed as aldehyde oxidase-mediated compound formation treated with 10 uM zoniporide by spectrometry
Aldehyde oxidase [5] = target: T1, Aldehyde oxidase; assay: Drug level in human liver S9 fraction assessed as aldehyde oxidase-mediated compound formation treated with 10 uM 5-cyclopropyl-1-(quinolin-5-yl)-1H-pyrazole-4-carboxamide by spectrometry
Aldehyde oxidase [6] = target: T1, Aldehyde oxidase; assay: Drug level in human liver S9 fraction assessed as aldehyde oxidase-mediated compound formation treated with 10 uM N-carbamimidoyl-3-cyclopropyl-1-(quinolin-5-yl)-1H-pyrazole-4-carboxamideby spectrometry
Aldehyde oxidase [7] = target: T1, Aldehyde oxidase; assay: Drug level in human liver S9 fraction assessed as aldehyde oxidase-mediated compound formation treated with 10 uM N-carbamimidoyl-5-isopropyl-1-(quinolin-5-yl)-1H-pyrazole-4-carboxamide by spectrometry
Aldehyde oxidase [8] = target: T1, Aldehyde oxidase; assay: Drug level in human liver S9 fraction assessed as aldehyde oxidase-mediated compound formation treated with 10 uM N-carbamimidoyl-5-cyclopropyl-1-(6-hydroxyquinolin-5-yl)-1H-pyrazole-4-carboxamide by spectrometry
Aldehyde oxidase [9] = target: T1, Aldehyde oxidase; assay: Drug level in human liver S9 fraction assessed as aldehyde oxidase-mediated compound formation treated with 10 uM N-carbamimidoyl-5-methyl-1-(quinolin-5-yl)-1H-pyrazole-4-carboxamide by spectrometry
Aldehyde oxidase [10] = target: T1, Aldehyde oxidase; assay: Drug level in human liver S9 fraction assessed as aldehyde oxidase-mediated compound formation treated with 10 uM N-carbamimidoyl-5-(methoxymethyl)-1-(quinolin-5-yl)-1H-pyrazole-4-carboxamide by spectrometry
Aldehyde oxidase [11] = target: T1, Aldehyde oxidase; assay: Drug level in human liver S9 fraction assessed as aldehyde oxidase-mediated compound formation treated with 10 uM N-carbamimidoyl-5-cyclopropyl-1-(6-methoxyquinolin-5-yl)-1H-pyrazole-4-carboxamide by spectrometry
Aldehyde oxidase [12] = target: T1, Aldehyde oxidase; assay: Drug level in human liver S9 fraction assessed as aldehyde oxidase-mediated compound formation treated with 10 uM N-carbamimidoyl-5-propyl-1-(quinolin-5-yl)-1H-pyrazole-4-carboxamide by spectrometry
Aldehyde oxidase [13] = target: T1, Aldehyde oxidase; assay: Drug level in human liver S9 fraction assessed as aldehyde oxidase-mediated compound formation treated with 10 uM 5-cyclopropyl-1-(quinolin-5-yl)-1H-pyrazole-4-carboxylic acid by spectrometry
Aldehyde oxidase [14] = target: T1, Aldehyde oxidase; assay: Drug level in human liver S9 fraction assessed as aldehyde oxidase-mediated compound formation treated with 10 uM 5-butyl-N-carbamimidoyl-1-(quinolin-5-yl)-1H-pyrazole-4-carboxamide by spectrometry
Aldehyde oxidase [15] = target: T1, Aldehyde oxidase; assay: Drug level in human liver S9 fraction assessed as aldehyde oxidase-mediated compound formation treated with 10 uM N-carbamimidoyl-5-cyclopropyl-1-(6-methylquinolin-5-yl)-1H-pyrazole-4-carboxamide by spectrometry
[16] = substrate: N=C(N)NC(=O)c1cnn(-c2ccnc3ccccc23)c1C1CC1; assay: (§1) Drug metabolism in human liver S9 fraction assessed as aldehyde oxidase-mediated 2-oxo-metabolite formation by spectrometry
[17] = substrate: CCN(CC)C(=O)c1cnn(-c2cccc3ncccc23)c1C1CC1; assay: as §1
[18] = substrate: N=C(N)NC(=O)c1cn(-c2cccc3ncccc23)nc1C1CC1; assay: as §1
[19] = substrate: N=C(N)NC(=O)c1cnn(-c2ccc3ncccc3c2)c1C1CC1; assay: as §1
[20] = substrate: COCc1c(C(=O)NC(=N)N)cnn1-c1cccc2ncccc12; assay: as §1
[21] = substrate: CC(C)c1c(C(=O)NC(=N)N)cnn1-c1cccc2ncccc12; assay: as §1

Drug metabolism (Aldehyde oxidase [1]): metabolite_detected | t1/2 (Aldehyde oxidase [2]): 26 min
Molecule: N=C(N)NC(=O)c1cnn(-c2cccc3ncccc23)c1C1CC1 [ZONIPORIDE]

Drug metabolism (Aldehyde oxidase [1]): metabolite_detected | t1/2 (Aldehyde oxidase [2]): 14 min
Molecule: N=C(N)NC(=O)c1cnn(-c2ccnc3ccccc23)c1C1CC1

Drug metabolism (Aldehyde oxidase [3]): metabolite_detected
Molecule: CCN(CC)C(=O)c1cnn(-c2cccc3[nH]c(=O)ccc23)c1C1CC1

Drug metabolism (Aldehyde oxidase [4]): metabolite_detected
Molecule: N=C(N)NC(=O)c1cnn(-c2cccc3[nH]c(=O)ccc23)c1C1CC1

Drug metabolism (Aldehyde oxidase [5]): metabolite_detected
Molecule: NC(=O)c1cnn(-c2cccc3[nH]c(=O)ccc23)c1C1CC1

Drug metabolism (Aldehyde oxidase [1]): metabolite_detected | t1/2 (Aldehyde oxidase [2]): 120 min
Molecule: COCc1c(C(=O)NC(=N)N)cnn1-c1cccc2ncccc12

Drug metabolism (Aldehyde oxidase [1]): metabolite_detected | t1/2 (Aldehyde oxidase [2]): 15 min
Molecule: CC(C)c1c(C(=O)NC(=N)N)cnn1-c1cccc2ncccc12

Drug metabolism (Aldehyde oxidase [1]): metabolite_detected | t1/2 (Aldehyde oxidase [2]): < 5 min
Molecule: N=C(N)NC(=O)c1cnn(-c2ccc3ncccc3c2)c1C1CC1

Drug metabolism (Aldehyde oxidase [6]): metabolite_detected
Molecule: N=C(N)NC(=O)c1cn(-c2cccc3[nH]c(=O)ccc23)nc1C1CC1

Drug metabolism (Aldehyde oxidase [7]): metabolite_detected
Molecule: CC(C)c1c(C(=O)NC(=N)N)cnn1-c1cccc2[nH]c(=O)ccc12

Drug metabolism (Aldehyde oxidase [8]): metabolite_detected
Molecule: N=C(N)NC(=O)c1cnn(-c2c(O)ccc3[nH]c(=O)ccc23)c1C1CC1

Drug metabolism (Aldehyde oxidase [1]): metabolite_detected | t1/2 (Aldehyde oxidase [2]): 37 min
Molecule: CCN(CC)C(=O)c1cnn(-c2cccc3ncccc23)c1C1CC1

Drug metabolism (Aldehyde oxidase [9]): metabolite_detected
Molecule: Cc1c(C(=O)NC(=N)N)cnn1-c1cccc2[nH]c(=O)ccc12

Drug metabolism (Aldehyde oxidase [1]): metabolite_detected | t1/2 (Aldehyde oxidase [2]): 120 min
Molecule: N=C(N)NC(=O)c1cnn(-c2cccc3[nH]cnc23)c1C1CC1

Drug metabolism (Aldehyde oxidase [10]): metabolite_detected
Molecule: COCc1c(C(=O)NC(=N)N)cnn1-c1cccc2[nH]c(=O)ccc12

Drug metabolism (Aldehyde oxidase [1]): metabolite_detected | t1/2 (Aldehyde oxidase [2]): 41 min
Molecule: CCCc1c(C(=O)NC(=N)N)cnn1-c1cccc2ncccc12

Drug metabolism (Aldehyde oxidase [1]): metabolite_detected | t1/2 (Aldehyde oxidase [2]): 120 min
Molecule: N=C(N)NC(=O)c1cnn(-c2c(O)ccc3ncccc23)c1C1CC1

Drug metabolism (Aldehyde oxidase [1]): metabolite_detected | t1/2 (Aldehyde oxidase [2]): 110 min
Molecule: NC(=O)c1cnn(-c2cccc3ncccc23)c1C1CC1

Drug metabolism (Aldehyde oxidase [11]): metabolite_detected
Molecule: COc1ccc2[nH]c(=O)ccc2c1-n1ncc(C(=O)NC(=N)N)c1C1CC1

Drug metabolism (Aldehyde oxidase [1]): metabolite_detected | t1/2 (Aldehyde oxidase [2]): 120 min
Molecule: Cc1ccc2ncccc2c1-n1ncc(C(=O)NC(=N)N)c1C1CC1

Drug metabolism (Aldehyde oxidase [12]): metabolite_detected
Molecule: CCCc1c(C(=O)NC(=N)N)cnn1-c1cccc2[nH]c(=O)ccc12

Drug metabolism (Aldehyde oxidase [1]): metabolite_not_detected
Molecule: N=C(N)NC(=O)c1cnn(-c2cccc3[nH]ccc23)c1C1CC1

Drug metabolism (Aldehyde oxidase [1]): metabolite_detected | t1/2 (Aldehyde oxidase [2]): 3.1 min
Molecule: N=C(N)NC(=O)c1cn(-c2cccc3ncccc23)nc1C1CC1

Drug metabolism (Aldehyde oxidase [1]): metabolite_detected | t1/2 (Aldehyde oxidase [2]): 120 min
Molecule: O=C(O)c1cnn(-c2cccc3ncccc23)c1C1CC1

Drug metabolism (Aldehyde oxidase [1]): metabolite_detected | t1/2 (Aldehyde oxidase [2]): 48 min
Molecule: CCCCc1c(C(=O)NC(=N)N)cnn1-c1cccc2ncccc12

Drug metabolism (Aldehyde oxidase [13]): metabolite_detected
Molecule: O=C(O)c1cnn(-c2cccc3[nH]c(=O)ccc23)c1C1CC1

Drug metabolism (Aldehyde oxidase [14]): metabolite_detected
Molecule: CCCCc1c(C(=O)NC(=N)N)cnn1-c1cccc2[nH]c(=O)ccc12

Drug metabolism (Aldehyde oxidase [1]): metabolite_detected | t1/2 (Aldehyde oxidase [2]): 120 min
Molecule: COc1ccc2ncccc2c1-n1ncc(C(=O)NC(=N)N)c1C1CC1

Drug metabolism (Aldehyde oxidase [1]): metabolite_detected | t1/2 (Aldehyde oxidase [2]): 33 min
Molecule: Cc1c(C(=O)N=C(N)N)cnn1-c1cccc2ncccc12

Drug metabolism (Aldehyde oxidase [1]): metabolite_not_detected
Molecule: N=C(N)NC(=O)c1cnn(-c2cccc3[nH]ncc23)c1C1CC1

Drug metabolism (Aldehyde oxidase [15]): metabolite_detected
Molecule: Cc1ccc2[nH]c(=O)ccc2c1-n1ncc(C(=O)NC(=N)N)c1C1CC1

B1: Aldehyde oxidase (Homo sapiens) (protein)
chain: T1 sequence (Q06278 whole entry)
Km [16]: 1.8 µM | Km [17]: 16 µM | Km [18]: 0.4 µM | Km [19]: 1.2 µM | Km [20]: 9 µM | Km [21]: 2.2 µM
